Experiments:
CA XII = CA XII (Homo sapiens, UniProt O43570); assay: Ki by stopped flow CO2 hydration assay, CA XII; type: biochemical; conditions: rate of CO2 hydration, stopped flow method
Experimental: (§1) In this experiment, Ki values were determined by measuring the rate of CO2 hydration of the CA spectrophotometrically by a stopped flow method in the presence of varying concentrations of the CA agents.

CA IX [1] = target: T1, CA IX (Homo sapiens, UniProt Q16790); assay: Carbonic anhydrase dependent binding of CA agents to HeLa cells (fluorescence microscopy, flow cytometry); type: cell-based; conditions: for binding to hypoxic HeLa cells, flow cytometry (FIG. 3) / binding to hypoxic and normoxic HeLa cells, fluorescence microscopy (FIG. 2): HeLa cells 24 h in air or 1% O2, agents 1 μM, 30 min; for binding to hypoxic HeLa cells after excess acetazolamide, fluorescence microscopy (FIG. 2) / signal on hypoxic HeLa cells with acetazolamide, flow cytometry (FIG. 3): acetazolamide 100 μM for 2 hour before the agent
T1 construct: confirming upregulation and expression of CA IX in these cells; endogenous in cells; host or cells: HeLa cells, hypoxic (1% O2) or normoxic
Experimental: Cell binding assays using HeLa cells cultured under […] were performed. Hela cells (28,000 cells/cm^2) were cultured in 6 well culture plates for 24 h under normoxic (air) or hypoxic (1% O2) conditions. Incubation with a fluorescent anti CA IX Ab (R&D systems) was performed in one well as a positive control followed by incubation for 1 h at 37° C. Carbonic anhydrase agents A5 and A3 (1 μM) or nonbinding control agent D3 were added to individual wells followed by incubation for 30 min. Cells were rinsed three times with PBS then scraped with 2 mL, transferred to 5 mL tubes and then spun for 10 min at 1000 rpm to discard the PBS. The cells were then re-suspend the cells in 400 μL PBS and analyzed by fluorescence microscopy and flow cytometry. For fluorescence microscopy, nuclei were co-stained with DAPI. For the competition study, cells were incubated with acetazolamide (Az) (100 μM) for 2 hour before incubation with agents.

CA II = CA II (Homo sapiens, UniProt P00918); assay: Ki by stopped flow CO2 hydration assay, CA II; type: biochemical; conditions: rate of CO2 hydration, stopped flow method
Experimental: as §1

CA XIV = CA XIV (Homo sapiens, UniProt Q9ULX7); assay: Ki by stopped flow CO2 hydration assay, CA XIV; type: biochemical; conditions: rate of CO2 hydration, stopped flow method
Experimental: as §1

CA IX [2] = target: T1, CA IX; assay: Ki by stopped flow CO2 hydration assay, CA IX; type: biochemical; conditions: for Ki: rate of CO2 hydration, stopped flow method
Experimental: as §1

[3] = Biodistribution of i.v. administered compound in HeLa tumor bearing mice; type: in vivo; conditions: 2 nmoles i.v., 24 hr, excised tissues, reflectance mode
Experimental: Female NU/NU mice 6-8 weeks old (Charles River Laboratory, Wilmington, MA) were injected subcutaneously (s.c.) with HeLa cells (5×10^6) in the first mammary fat pads. Once tumors reached the desired volume (measured with calipers using the formula volume mm^3=(length×width^2)/2), mice were injected i.v. with compound C5 (2 nmoles) or nonbinding control D3. Mice were sacrificed by carbon dioxide asphyxiation 24 hr later and certain tissues removed, rinsed with saline, blotted dry, and the imaged on a VisEn FMT 2500 using the reflectance mode. Regions of interest (ROIs) were drawn around each organ using the FMT Software and the mean fluorescence (reported as counts/energy) determined for each organ and normalized to the mean fluorescence in tumors taken to be 100%.

HeLa tumors = assay: Imaging of tumors in vivo using CA agents (planar reflectance and FMT); conditions: NU/NU mice, bilateral HeLa tumors, 2 nmoles i.v., 24 hrs post-injection
Experimental: In this experiment, NU/NU mice 6-8 weeks old (Charles River Laboratory, Wilmington, MA) were injected subcutaneously (s.c.) with about 2×10^6 HeLa cells bilaterally in each mammary fat pad. When tumors reached an approximate size of 3×3 mm, mice were injected intravenously (i.v.) with 2 nmoles of carbonic anhydrase agent C5 or nonbinding control agent D3 (5 mice/probe+2 mice/no probe as control) in 100 μL volume via tail vein. Imaging was conducted at 24 hrs post-injection using a Fluorescence Molecular Tomography system (VisEn Medical, Bedford, MA) that is commercially available.

CA XIV, sequence (Q9ULX7 16-337, species assumed): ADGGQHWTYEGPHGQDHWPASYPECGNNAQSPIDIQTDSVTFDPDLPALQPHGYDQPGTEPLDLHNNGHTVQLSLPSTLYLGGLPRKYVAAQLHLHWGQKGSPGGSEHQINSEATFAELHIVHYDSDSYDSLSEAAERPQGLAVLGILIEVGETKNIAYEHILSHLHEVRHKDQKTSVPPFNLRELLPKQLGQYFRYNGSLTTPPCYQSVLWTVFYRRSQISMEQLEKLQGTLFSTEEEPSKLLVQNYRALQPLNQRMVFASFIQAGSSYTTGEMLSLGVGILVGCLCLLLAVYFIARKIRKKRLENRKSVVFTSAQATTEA
CA XII, sequence (O43570 25-354, species assumed): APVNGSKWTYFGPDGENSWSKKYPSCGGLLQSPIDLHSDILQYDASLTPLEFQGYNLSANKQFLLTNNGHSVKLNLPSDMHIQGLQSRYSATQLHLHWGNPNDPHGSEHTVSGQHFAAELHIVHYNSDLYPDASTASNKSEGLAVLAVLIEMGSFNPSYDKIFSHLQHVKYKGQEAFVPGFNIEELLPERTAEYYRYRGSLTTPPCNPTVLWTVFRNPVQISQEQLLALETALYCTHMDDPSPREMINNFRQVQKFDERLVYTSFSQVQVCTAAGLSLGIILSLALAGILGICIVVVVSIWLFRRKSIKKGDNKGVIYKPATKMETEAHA

| Structure (SMILES) | Ki (CA XII) | binding to hypoxic HeLa cells, flow cytometry (FIG. 3) (CA IX [1]) | binding to hypoxic HeLa cells after excess acetazolamide, fluorescence microscopy (FIG. 2) (CA IX [1]) | signal on hypoxic HeLa cells with acetazolamide, flow cytometry (FIG. 3) (CA IX [1]) | Ki (CA II) | Ki (CA XIV) | Ki (CA IX [2]) | specific binding to carbonic anhydrases (CA IX [2]; summary in words of Table 5: CA II, CA IX, CA XII, CA XIV) | binding to hypoxic and normoxic HeLa cells, fluorescence microscopy (FIG. 2) (CA IX [1]) | tissue fluorescence (biodistribution), normalized to tumors (FIG. 4) [3] | tumor signal by planar reflectance and tomographic imaging (HeLa tumors) |
| --- | --- | --- | --- | --- | --- | --- | --- | --- | --- | --- | --- |
| CN(CCCC(=O)NCc1ccc(C(=O)Nc2nnc(S(N)(=O)=O)s2)cc1)S(=O)(=O)c1cccc2c3c(ccc12)[N+](CCCS(=O)(=O)[O-])=C(/C=C/C=C/C=C1/N(CCCS(=O)(=O)O)c2ccc4c(S(=O)(=O)O)cc(S(=O)(=O)O)cc4c2C1(C)C)C3(C)C [Compound A1, 3-(2-((1E,3E,5E)-5-(1,1-dimethyl-6,8-disulfo-3-(3-sulfopropyl)-1H-benzo[e]indol-2(3H)-ylidene)penta-1,3-dien-1-yl)-1,1-dimethyl-6-(N-methyl-N-(4-oxo-4-((4-((5-sulfamoyl-1,3,4-thiadiazol-2-yl)carbamoyl)benzyl)amino)butyl)sulfamoyl)-1H-benzo[e]indol-3-ium-3-yl)propane-1-sulfonate] | 57 nM |  |  |  | 288 nM | 77 nM | 8.4 nM |  |  |  |  |
| CCN1/C(=C/C=C(/C=C/C2=[N+](CC)c3ccc4c(S(=O)(=O)[O-])cc(S(=O)(=O)O)cc4c3C2(C)C)c2ccc(C(=O)NCc3ccc(S(N)(=O)=O)cc3)cn2)C(C)(C)c2c1ccc1c(S(=O)(=O)O)cc(S(=O)(=O)O)cc21 [Compound B6, 3-ethyl-2-((1E,3Z,5E)-5-(3-ethyl-1,1-dimethyl-6,8-disulfo-1H-benzo[e]indol-2(3H)-ylidene)-3-(5-((4-sulfamoylbenzyl)carbamoyl)pyridin-2-yl)penta-1,3-dien-1-yl)-1,1-dimethyl-8-sulfo-1H-benzo[e]indol-3-ium-6-sulfonate] | 40 nM |  |  |  | 502 nM | 69 nM | 9.9 nM |  |  |  |  |
| CCN1/C(=C/C=C(/C=C/C2=[N+](CC)c3ccc4c(S(=O)(=O)[O-])cc(S(=O)(=O)O)cc4c3C2(C)C)c2ccc(C(=O)NCc3ccc(C(=O)Nc4nnc(S(N)(=O)=O)s4)cc3)cn2)C(C)(C)c2c1ccc1c(S(=O)(=O)O)cc(S(=O)(=O)O)cc21 [Compound A6, 3-ethyl-2-((1E,3Z,5E)-5-(3-ethyl-1,1-dimethyl-6,8-disulfo-1H-benzo[e]indol-2(3H)-ylidene)-3-(5-((4-((5-sulfamoyl-1,3,4-thiadiazol-2-yl)carbamoyl)benzyl)carbamoyl)pyridin-2-yl)penta-1,3-dien-1-yl)-1,1-dimethyl-8-sulfo-1H-benzo[e]indol-3-ium-6-sulfonate] | 40 nM |  |  |  | 27.1 nM | 84 nM | 7.7 nM |  |  |  |  |
| CC1(C)C(/C=C/C(=C/C=C2/N(CCCS(=O)(=O)O)c3ccc4c(S(=O)(=O)O)cc(S(=O)(=O)O)cc4c3C2(C)C)c2ccc(C(=O)NCc3ccc(C(=O)Nc4nnc(S(N)(=O)=O)s4)cc3)cn2)=[N+](CCCS(=O)(=O)[O-])c2ccc3c(S(=O)(=O)O)cc(S(=O)(=O)O)cc3c21 [Compound A5, 3-(2-((1E,3Z,5E)-5-(1,1-dimethyl-6,8-disulfo-3-(3-sulfopropyl)-1H-benzo[e]indol-2(3H)-ylidene)-3-(5-((4-((5-sulfamoyl-1,3,4-thiadiazol-2-yl)carbamoyl)benzyl)carbamoyl)pyridin-2-yl)penta-1,3-dien-1-yl)-1,1-dimethyl-6,8-disulfo-1H-benzo[e]indol-3-ium-3-yl)propane-1-sulfonate] | 43 nM | increased binding | binding can be blocked | blocking of the signal | 271 nM | 45 nM | 7.9 nM |  | bound to CA IX receptors on the surface of the hypoxic cells but not normoxic cells |  |  |

The next lines start with results.

| Ki (CA XII) | binding to hypoxic HeLa cells, flow cytometry (FIG. 3) (CA IX [1]) | binding to hypoxic HeLa cells after excess acetazolamide, fluorescence microscopy (FIG. 2) (CA IX [1]) | signal on hypoxic HeLa cells with acetazolamide, flow cytometry (FIG. 3) (CA IX [1]) | Ki (CA II) | Ki (CA XIV) | Ki (CA IX [2]) | specific binding to carbonic anhydrases (CA IX [2]; summary in words of Table 5: CA II, CA IX, CA XII, CA XIV) | Structure (SMILES) | binding to hypoxic and normoxic HeLa cells, fluorescence microscopy (FIG. 2) (CA IX [1]) | tissue fluorescence (biodistribution), normalized to tumors (FIG. 4) [3] | tumor signal by planar reflectance and tomographic imaging (HeLa tumors) |
| --- | --- | --- | --- | --- | --- | --- | --- | --- | --- | --- | --- |
| 36 nM | increased binding | binding can be blocked | blocking of the signal | 9.8 nM | 57 nM | 7.6 nM |  | CC1(C)C(/C=C/C(=C/C=C2/N(CCCS(=O)(=O)O)c3ccc4c(S(=O)(=O)O)cc(S(=O)(=O)O)cc4c3C2(C)C)c2ccc(C(=O)NCCCCCC(=O)NCc3ccc(C(=O)Nc4nnc(S(N)(=O)=O)s4)cc3)cn2)=[N+](CCCS(=O)(=O)[O-])c2ccc3c(S(=O)(=O)O)cc(S(=O)(=O)O)cc3c21 [Compound A3, 3-(2-((1E,3Z,5E)-5-(1,1-dimethyl-6,8-disulfo-3-(3-sulfopropyl)-1H-benzo[e]indol-2(3H)-ylidene)-3-(5-((6-oxo-6-((4-((5-sulfamoyl-1,3,4-thiadiazol-2-yl)carbamoyl)benzyl)amino)hexyl)carbamoyl)pyridin-2-yl)penta-1,3-dien-1-yl)-1,1-dimethyl-6,8-disulfo-1H-benzo[e]indol-3-ium-3-yl)propane-1-sulfonate] | bound to CA IX receptors on the surface of the hypoxic cells but not normoxic cells |  |  |
| > 100000 nM | not |  |  | > 100000 nM | > 100000 nM | > 100000 nM | no specific binding is detected | CC1(C)C(/C=C/C(=C/C=C2/N(CCCS(=O)(=O)O)c3ccc4c(S(=O)(=O)O)cc(S(=O)(=O)O)cc4c3C2(C)C)c2ccc(C(=O)NCCCCCC(=O)NCc3ccccc3)cn2)=[N+](CCCS(=O)(=O)[O-])c2ccc3c(S(=O)(=O)O)cc(S(=O)(=O)O)cc3c21 [Compound D3, 3-(2-((1E,3Z,5E)-3-(5-((6-(benzylamino)-6-oxohexyl)carbamoyl)pyridin-2-yl)-5-(1,1-dimethyl-6,8-disulfo-3-(3-sulfopropyl)-1H-benzo[e]indol-2(3H)-ylidene)penta-1,3-dien-1-yl)-1,1-dimethyl-6,8-disulfo-1H-benzo[e]indol-3-ium-3-yl)propane-1-sulfonate] | doesn't bind to either normoxic or hypoxic cells | fluorescence accumulation only in the kidneys | little or no tumor signal |

— US12110283B2, “Carbonic anhydrase targeting agents and methods of using same” (VisEn Medical, Inc., priority 2011, dated 2024)
